What was measured:
[1] = system: macrophages and neutrophiles in bronchoalveolar lavage fluids; assay: Cell counts of inflammatory cells in bronchoalveolar lavage fluids of model mice with tobacco smoke-induced pulmonary emphysema; assay type: in vivo, C57black/6 female mice; conditions: after six months' exposure, 25, 50 or 100 mg/kg orally twice daily
Protocol: The model mice with tobacco smoke-induced pulmonary emphysema mimicking human pulmonary emphysema were constructed according to the method as described in Hautamaki, R. D. et al., Science 1997, 277:2002-2004 or Shapiro, S. D. et al., Am. J. Pathol (2003) 163:2329-2335. Specifically, C57black/6 female mice of 12-weeks old were exposed to tobacco smoke at two cigarettes per day, 6 days per week for 6 months. Administration of clarithromycin was carried out orally at the rate of 25, 50 or 100 […] twice daily (morning and evening) during the tobacco smoke exposure period. The plasma AUC0-∞ of clarithromycin obtained when 50 mg/kg was singly administered to the mice was 2.677 μg·hr/ml while the plasma AUC0-∞ of clarithromycin obtained when 200 mg of clarithromycin was singly administered to a normal human subject was 8.98 μg·hr/ml. The former concentration was substantially lower than the latter one and was an adequate concentration to be used clinically. The cell counts of inflammatory cells (macrophages and neutrophiles) in the bronchoalveolar lavage fluids after six months' exposure were measured to provide an index of the inflammatory condition in the model mice with tobacco smoke-induced pulmonary emphysema. […]

[2] = Plasma AUC after single administration to mice; assay type: in vivo; conditions: C57black/6, mouse, oral, 50 mg/kg singly administered, read-out: plasma AUC0-∞
Protocol: (§1) Administration of clarithromycin was carried out orally at the rate of 25, 50 or 100 […] twice daily (morning and evening) during the tobacco smoke exposure period. The plasma AUC0-∞ of clarithromycin obtained when 50 mg/kg was singly administered to the mice was 2.677 μg·hr/ml while the plasma AUC0-∞ of clarithromycin obtained when 200 mg of clarithromycin was singly administered to a normal human subject was 8.98 μg·hr/ml. The former concentration was substantially lower than the latter one and was an adequate concentration to be used clinically.

[3] = Plasma AUC after single administration to a normal human subject; assay type: in vivo; conditions: 200 mg singly administered, read-out: plasma AUC0-∞
Protocol: as §1

[4] = system: model mice with tobacco smoke-induced pulmonary emphysema; assay: Pulmonary compliance in model mice with tobacco smoke-induced pulmonary emphysema; assay type: in vivo, C57black/6 female mice; conditions: after six months' exposure; FIG. 2
Protocol: The model mice with tobacco smoke-induced pulmonary emphysema mimicking human pulmonary emphysema were constructed according to the method as described in Hautamaki, R. D. et al., Science 1997, 277:2002-2004 or Shapiro, S. D. et al., Am. J. Pathol (2003) 163:2329-2335. Specifically, C57black/6 female mice of 12-weeks old were exposed to tobacco smoke at two cigarettes per day, 6 days per week for 6 months. Administration of clarithromycin was carried out orally at the rate of 25, 50 or 100 […] twice daily (morning and evening) during the tobacco smoke exposure period. The plasma AUC0-∞ of clarithromycin obtained when 50 mg/kg was singly administered to the mice was 2.677 μg·hr/ml while the plasma AUC0-∞ of clarithromycin obtained when 200 mg of clarithromycin was singly administered to a normal human subject was 8.98 μg·hr/ml. The former concentration was substantially lower than the latter one and was an adequate concentration to be used clinically. It has been reported that as pulmonary emphysema progresses, pulmonary functions deteriorate. It has also been known that the pulmonary compliance, which is an index of pulmonary functions, increases in model mice with tobacco smoke-induced pulmonary emphysema. Thus, the pulmonary compliance was measured in the model mice with tobacco smoke-induced pulmonary emphysema after six months' exposure.

AUC(0-inf) [2]: 2680 ng·h/mL
AUC(0-inf) [3]: 8980 ng·h/mL
SMILES: CC[C@H]1OC(=O)[C@H](C)[C@@H](O[C@H]2C[C@@](C)(OC)[C@@H](O)[C@H](C)O2)[C@H](C)[C@@H](O[C@@H]2O[C@H](C)C[C@H](N(C)C)[C@H]2O)[C@](C)(OC)C[C@@H](C)C(=O)[C@H](C)[C@@H](O)[C@]1(C)O [clarithromycin]
cell count of macrophages in bronchoalveolar lavage fluid ([1]; FIG. 1A): reduced the cell counts of macrophages and neutrophiles in a dose-dependant manner
cell count of neutrophiles in bronchoalveolar lavage fluid ([1]; FIG. 1B): reduced the cell counts of macrophages and neutrophiles in a dose-dependant manner
pulmonary compliance [4]: the pulmonary compliance recovered

Source: patent US8017588B2, “Clarithromycin or salt thereof for use in the treatment or prevention of pulmonary disease induced by destruction of pulmonary alveoli” (Taisho Pharmaceutical Co., Ltd, priority 2005, dated 2011)
